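Briefly, cells in 96-well plates were exposed to five compound concentrations for 48 h, and endpoints were estimated by linear interpolation. GI50 is the concentration that inhibits growth by half. TGI: total growth inhibition.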

Some test systems named below: A498 renal; BT-549 breast; EKVX NSCLC; MALME-3M melanoma; OVCAR-8 ovarian; SF-539 CNS; SK-MEL-2 melanoma; SK-MEL-28 melanoma; SK-MEL-5 melanoma; SNB-75 CNS.
Holding throughout (assay): NCI-60 cell line screen, 48 h

As for `COc1cc(/C=C/C(=O)C(C(=O)/C=C/c2ccc(OC(=O)CCNC34CC5CC(CC(C5)C3)C4)c(OC)c2)C(=O)CCNC23CC4CC(CC(C4)C2)C3)ccc1OC(=O)CCNC12CC3CC(CC(C3)C1)C2` (stereo not given), the GI50 with A498 renal was 3.47 µM; in the experiment with BT-549 breast it was 2.5 µM; in the experiment with EKVX NSCLC, 2.95 µM; in the experiment on MALME-3M melanoma, 2.44 µM; in the experiment on OVCAR-8 ovarian, 1.62 µM; with SF-539 CNS it was 2.27 µM. The GI50 was 3.53 µM with SK-MEL-2 melanoma, 1.67 µM with SK-MEL-28 melanoma, 3.36 µM in the experiment on SK-MEL-5 melanoma and 4.86 µM in the experiment on SNB-75 CNS. Besides, the TGI was determined as 13.6 µM with A498 renal; 5.77 µM in the experiment with BT-549 breast; 8.97 µM in the experiment with EKVX NSCLC; 9.92 µM with MALME-3M melanoma; 5.18 µM in the experiment on OVCAR-8 ovarian; 5.01 µM with SF-539 CNS. The TGI was over 100 µM with SK-MEL-2 melanoma, 4.28 µM with SK-MEL-28 melanoma, 13.4 µM in the experiment on SK-MEL-5 melanoma and 33.3 µM with SNB-75 CNS.

With `COc1cc(/C=C/C(=O)Oc2ccccc2)ccc1C(=O)O/C=C/c1ccccc1`, the TGI in the experiment with A498 renal is over 21.5 µM; with BT-549 breast, over 100 µM; in the experiment on EKVX NSCLC, over 100 µM; in the experiment on MALME-3M melanoma, over 100 µM; in the experiment with OVCAR-8 ovarian it was over 100 µM; in the experiment on SF-539 CNS, over 100 µM. The TGI in the experiment on SK-MEL-2 melanoma, in the experiment on SK-MEL-28 melanoma, with SK-MEL-5 melanoma and in the experiment on SNB-75 CNS was over 100 µM each time.

`Oc1ccc(Oc2cnc3ccccc3n2)cc1`: the GI50 is 37.2 µM in the experiment on A498 renal; 12.3 µM with BT-549 breast; 67 µM in the experiment on EKVX NSCLC; over 100 µM with MALME-3M melanoma; over 100 µM in the experiment with OVCAR-8 ovarian; 77.2 µM in the experiment with SF-539 CNS. Besides, the GI50 in the experiment with SK-MEL-2 melanoma is over 100 µM; with SK-MEL-28 melanoma, over 100 µM; with SK-MEL-5 melanoma, 55.7 µM; in the experiment with SNB-75 CNS, 60 µM. Further, the TGI in the experiment on A498 renal is over 100 µM; in the experiment on BT-549 breast, 57.5 µM; in the experiment on EKVX NSCLC, over 100 µM; in the experiment with MALME-3M melanoma it was over 100 µM; with OVCAR-8 ovarian, over 100 µM; with SF-539 CNS it was over 100 µM. Further, the TGI in the experiment with SK-MEL-2 melanoma, with SK-MEL-28 melanoma, in the experiment with SK-MEL-5 melanoma and in the experiment on SNB-75 CNS was over 100 µM each time.

Turning to `CS(=O)(=O)CS(=O)(=O)OCCCl`, the TGI worked out at 1350 µM in the experiment with A498 renal; 181 µM with BT-549 breast; 1080 µM with EKVX NSCLC; 1270 µM in the experiment with MALME-3M melanoma; 1270 µM in the experiment with OVCAR-8 ovarian; 266 µM in the experiment with SF-539 CNS. Moreover, the TGI with SK-MEL-2 melanoma turned out to be 856 µM; with SK-MEL-28 melanoma, 1510 µM; in the experiment on SK-MEL-5 melanoma it was 777 µM; with SNB-75 CNS, 256 µM.

For `CC(=O)NC1CONC1=O` (stereo not given), the TGI in the experiment on A498 renal, with BT-549 breast, in the experiment on EKVX NSCLC, with MALME-3M melanoma, in the experiment on OVCAR-8 ovarian and in the experiment with SF-539 CNS was over 100 µM in each case. Moreover, the TGI with SK-MEL-2 melanoma, in the experiment on SK-MEL-28 melanoma, in the experiment with SK-MEL-5 melanoma and in the experiment on SNB-75 CNS was over 100 µM throughout.

For the compound `C=CCn1c(SCC(=O)Nc2ccc(C(=O)/C=C/c3cc(OC)c(OC)c(OC)c3)cc2)nnc1-c1ccc(OC)cc1`, the GI50 was 1.5 µM with A498 renal; 0.209 µM in the experiment on BT-549 breast; 1.33 µM in the experiment with EKVX NSCLC; 1.89 µM in the experiment with MALME-3M melanoma; 0.755 µM in the experiment with OVCAR-8 ovarian; 0.248 µM with SF-539 CNS. The GI50 in the experiment on SK-MEL-2 melanoma was 2.1 µM; with SK-MEL-28 melanoma it was 0.709 µM; in the experiment with SK-MEL-5 melanoma, 0.79 µM; in the experiment with SNB-75 CNS, 0.311 µM. In addition, the TGI was 2.91 µM in the experiment on A498 renal; 0.546 µM in the experiment with BT-549 breast; 64 µM with EKVX NSCLC; 36.8 µM with MALME-3M melanoma; 10 µM in the experiment on OVCAR-8 ovarian; 0.666 µM in the experiment with SF-539 CNS. Further, the TGI in the experiment on SK-MEL-2 melanoma was 15.4 µM; in the experiment with SK-MEL-28 melanoma, 73.8 µM; with SK-MEL-5 melanoma, 2.27 µM; with SNB-75 CNS, 9.19 µM.

For the compound `C=C(C)[C@@H]1CC[C@]2(C)[C@H](CC[C@@H]3[C@@H]([C@@](C)(O)CCC=C(C)C)CC[C@]32C)[C@@]1(C)CCC(=O)O`, the GI50 with A498 renal was 29.5 µM; in the experiment on BT-549 breast, 16.8 µM; in the experiment on EKVX NSCLC, 24.2 µM; in the experiment on MALME-3M melanoma, 14.4 µM; in the experiment on OVCAR-8 ovarian, 19 µM; in the experiment with SF-539 CNS it was 16 µM. Further, the GI50 in the experiment with SK-MEL-2 melanoma is 17.6 µM; in the experiment on SK-MEL-28 melanoma, 16.3 µM; in the experiment with SK-MEL-5 melanoma, 15.2 µM; in the experiment on SNB-75 CNS it was 15.3 µM. Further, the TGI was over 100 µM in the experiment with A498 renal; 35.8 µM with BT-549 breast; 59.6 µM with EKVX NSCLC; 28.2 µM in the experiment on MALME-3M melanoma; 43 µM with OVCAR-8 ovarian; 29.9 µM with SF-539 CNS. Further, the TGI turned out to be 39 µM with SK-MEL-2 melanoma, 30.3 µM with SK-MEL-28 melanoma, 29 µM in the experiment with SK-MEL-5 melanoma and 34.8 µM in the experiment with SNB-75 CNS.

These data come from PubChem BioAssay (NCI).
